# Measurements from ChEMBL document CHEMBL5143723, “Orally Bioavailable Enzymatic Inhibitor of CD38, MK-0159, Protects against Ischemia/Reperfusion Injury in the Murine Heart” (J Med Chem, 2022).
# The source made the active and inactive calls. No cut-off for these calls is given here.
# Legend:
# [1] = Drug exposure in mouse plasma assessed as AUC of drug at 3 mg/kg, po; type: ADME, organism-based; parameters: dose 3 mg/kg, route po
# [2] = Plasma concentration in Sprague-Dawley rat at 10 to 90 mg/kg, via oral gavage by LC-MS/MS analysis; type: ADME, organism-based; details: in vivo, DDE = dose-dependent effect, dose 10-90 mg/kg
# [3] = Half life in non-human primates at 1 mg/kg, po; type: ADME, organism-based; details: in vivo
# [4] = target: hERG (Homo sapiens, UniProt Q12809); assay: Inhibition of hERG (unknown origin) at 10 uM by patch clamp method; type: toxicity
# Sequence of hERG (Q12809 whole entry): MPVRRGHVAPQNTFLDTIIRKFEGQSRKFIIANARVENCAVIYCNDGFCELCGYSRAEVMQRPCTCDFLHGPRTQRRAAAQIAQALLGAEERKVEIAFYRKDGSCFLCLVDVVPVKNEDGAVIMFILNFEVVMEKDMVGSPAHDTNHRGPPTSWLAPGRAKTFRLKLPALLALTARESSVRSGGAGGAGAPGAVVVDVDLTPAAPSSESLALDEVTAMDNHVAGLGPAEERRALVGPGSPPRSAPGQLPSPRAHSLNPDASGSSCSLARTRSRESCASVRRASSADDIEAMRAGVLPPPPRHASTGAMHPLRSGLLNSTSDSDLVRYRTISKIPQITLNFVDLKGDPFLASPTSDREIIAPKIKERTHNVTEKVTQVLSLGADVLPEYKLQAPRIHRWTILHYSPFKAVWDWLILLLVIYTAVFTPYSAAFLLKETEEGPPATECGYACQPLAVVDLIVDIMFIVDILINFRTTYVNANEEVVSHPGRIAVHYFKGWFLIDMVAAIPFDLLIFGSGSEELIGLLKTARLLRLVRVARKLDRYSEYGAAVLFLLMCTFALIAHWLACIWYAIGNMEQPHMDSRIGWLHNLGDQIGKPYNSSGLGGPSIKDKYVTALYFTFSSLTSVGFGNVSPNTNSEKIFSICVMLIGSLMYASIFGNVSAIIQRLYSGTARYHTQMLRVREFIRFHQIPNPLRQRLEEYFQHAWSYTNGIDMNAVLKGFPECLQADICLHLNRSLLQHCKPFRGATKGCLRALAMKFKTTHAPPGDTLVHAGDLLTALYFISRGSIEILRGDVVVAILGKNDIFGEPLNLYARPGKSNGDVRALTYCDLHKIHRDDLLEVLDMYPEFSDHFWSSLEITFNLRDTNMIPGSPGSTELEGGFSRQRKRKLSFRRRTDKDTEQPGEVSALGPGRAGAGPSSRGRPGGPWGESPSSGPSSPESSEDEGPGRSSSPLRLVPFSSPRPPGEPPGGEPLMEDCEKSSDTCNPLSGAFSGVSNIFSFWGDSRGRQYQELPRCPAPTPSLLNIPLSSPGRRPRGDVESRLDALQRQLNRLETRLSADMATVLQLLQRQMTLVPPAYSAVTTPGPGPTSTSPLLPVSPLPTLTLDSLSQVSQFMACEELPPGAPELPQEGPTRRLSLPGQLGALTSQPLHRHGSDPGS
# [5] = Kinetic aqueous solubility of the compound; type: physicochemical; details: buffer; read-out: Kinetic_solubility
# [6] = Half life in non-human primates at 1 mg/kg, iv; type: ADME, organism-based; details: in vivo
# [7] = In vivo inhibition of CD38 in po dosed mouse assessed as reduction in ADPR level in heart measured after 6 hrs; type: functional, organism-based
# [8] = organism: Mus musculus; details: C57BL/6, dose 30.0 mg/kg, route po
# Description: In vivo inhibition of CD38 in myocardial ischemia/reperfusion induced C57BL/6 mouse injury model assessed as change in cardiac NAD+ level at 30 mg/kg via oral gavage
# [9] = Thermodynamic aqueous solubility of the compound; type: physicochemical; details: buffer; read-out: Therm_solubility
# [10] = AUC in CD-1 mouse at 1 mg/kg, iv; type: ADME, organism-based; parameters: dose 1 mg/kg, route iv; details: in vivo
# [11] = AUC in Sprague-Dawley rat at 1 mg/kg, iv; type: ADME, organism-based; parameters: dose 1 mg/kg, route iv; details: in vivo
# [12] = Cmax in Sprague-Dawley rat at 10 mg/kg, po; type: ADME, organism-based; parameters: dose 10 mg/kg, route po; details: in vivo
# [13] = Half life in CD-1 mouse at 3 mg/kg, po; type: ADME, organism-based; details: in vivo
# [14] = Half life in CD-1 mouse at 1 mg/kg, iv; type: ADME, organism-based; details: in vivo
# [15] = target: T1, CYP1A2 (Homo sapiens, UniProt P05177); assay: Inhibition of CYP1A2 (unknown origin) at 10 uM relative to control; type: ADME
# T1 sequence (P05177 whole entry): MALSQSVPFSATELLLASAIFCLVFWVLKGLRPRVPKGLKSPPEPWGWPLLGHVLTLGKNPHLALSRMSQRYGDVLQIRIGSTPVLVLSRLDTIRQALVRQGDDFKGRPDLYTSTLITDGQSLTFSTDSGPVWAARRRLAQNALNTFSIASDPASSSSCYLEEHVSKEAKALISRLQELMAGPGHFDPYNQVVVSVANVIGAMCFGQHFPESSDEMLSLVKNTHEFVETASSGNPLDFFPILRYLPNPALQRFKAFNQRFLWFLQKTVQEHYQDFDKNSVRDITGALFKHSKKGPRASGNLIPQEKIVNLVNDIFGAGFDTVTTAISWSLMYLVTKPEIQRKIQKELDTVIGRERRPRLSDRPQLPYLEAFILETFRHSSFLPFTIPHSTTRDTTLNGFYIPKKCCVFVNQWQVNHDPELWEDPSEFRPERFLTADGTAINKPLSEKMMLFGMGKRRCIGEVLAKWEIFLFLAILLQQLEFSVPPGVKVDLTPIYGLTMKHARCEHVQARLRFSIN
# [16] = organism: Mus musculus; details: C57BL/6, dose 30.0 mg/kg, route po, time 4.0 hrs
# [17] = Half life in Sprague-Dawley rat at 1 mg/kg, iv; type: ADME, organism-based; details: in vivo
# [18] = Cmax in CD-1 mouse at 3 mg/kg, po; type: ADME, organism-based; parameters: dose 3 mg/kg, route po; details: in vivo
# [19] = Apparent permeability of compound across basolateral to apical side in human Caco-2 cells; type: ADME, cell-based
# [20] = organism: Mus musculus; details: dose 3-30 mg/kg, route po, time 6.0 hrs
# [21] = Half life in Sprague-Dawley rat at 10 mg/kg, po; type: ADME, organism-based; details: in vivo
# [22] = AUC in non-human primates at 1 mg/kg, iv; type: ADME, organism-based; parameters: dose 1 mg/kg, route iv; details: in vivo
# [23] = Volume of distribution at steady state in non-human primates at 1 mg/kg, iv; type: ADME, organism-based; details: in vivo, read-out: Vdss
# [24] = target: T2, CYP2C8 (Homo sapiens, UniProt P10632); assay: Inhibition of CYP2C8 (unknown origin) at 10 uM relative to control; type: ADME
# T2 sequence (P10632 whole entry): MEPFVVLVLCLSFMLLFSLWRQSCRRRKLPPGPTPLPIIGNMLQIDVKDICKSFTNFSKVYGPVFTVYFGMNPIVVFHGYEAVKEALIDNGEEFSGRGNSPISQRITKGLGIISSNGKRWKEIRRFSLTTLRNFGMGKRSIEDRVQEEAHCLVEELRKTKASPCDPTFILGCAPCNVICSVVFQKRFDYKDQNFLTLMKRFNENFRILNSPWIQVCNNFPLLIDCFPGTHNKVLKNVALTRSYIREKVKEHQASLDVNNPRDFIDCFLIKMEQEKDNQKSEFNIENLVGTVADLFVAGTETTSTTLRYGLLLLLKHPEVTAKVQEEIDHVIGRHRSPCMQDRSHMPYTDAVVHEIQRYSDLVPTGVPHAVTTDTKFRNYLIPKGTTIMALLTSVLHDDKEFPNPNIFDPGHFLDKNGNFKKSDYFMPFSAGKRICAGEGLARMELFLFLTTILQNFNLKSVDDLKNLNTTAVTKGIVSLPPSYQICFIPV
# [25] = organism: Mus musculus; details: dose 3-30 mg/kg, route po, time 6.0 hrs; remark: listed apart in the source
# [26] = organism: Mus musculus; details: C57BL/6, dose 30.0 mg/kg, route po, time 4.0 hrs; remark: listed apart in the source
# [27] = target: CYP2C9 (Homo sapiens, UniProt P11712); assay: Inhibition of CYP2C9 (unknown origin) at 10 uM relative to control; type: ADME
# Sequence of CYP2C9 (P11712 whole entry): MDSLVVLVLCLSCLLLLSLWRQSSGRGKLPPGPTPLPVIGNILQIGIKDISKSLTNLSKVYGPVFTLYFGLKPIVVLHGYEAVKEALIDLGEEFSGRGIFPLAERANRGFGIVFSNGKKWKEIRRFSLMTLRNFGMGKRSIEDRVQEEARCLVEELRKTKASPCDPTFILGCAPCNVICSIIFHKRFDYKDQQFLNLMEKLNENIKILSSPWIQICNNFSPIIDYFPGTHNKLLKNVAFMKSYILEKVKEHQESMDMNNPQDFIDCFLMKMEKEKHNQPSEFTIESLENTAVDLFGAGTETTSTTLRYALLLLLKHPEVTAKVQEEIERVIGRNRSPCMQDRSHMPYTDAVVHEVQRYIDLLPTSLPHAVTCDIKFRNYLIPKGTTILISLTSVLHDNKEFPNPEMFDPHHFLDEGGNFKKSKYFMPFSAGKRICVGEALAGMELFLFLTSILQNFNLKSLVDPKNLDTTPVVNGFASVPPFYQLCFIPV
# [28] = AUC in CD-1 mouse at 3 mg/kg, po; type: ADME, organism-based; parameters: dose 3 mg/kg, route po; details: in vivo
# [29] = Volume of distribution at steady state in CD-1 mouse at 1 mg/kg, iv; type: ADME, organism-based; details: in vivo
# [30] = organism: Mus musculus; details: dose 3-30 mg/kg, route po, time 6.0 hrs; remark: listed apart in the source
# [31] = organism: Mus musculus; details: C57BL/6, dose 30.0 mg/kg, route po, time 4.0 hrs; remark: listed apart in the source
# [32] = target: CYP2D6 (Homo sapiens, UniProt P10635); assay: Inhibition of CYP2D6 (unknown origin) at 10 uM relative to control; type: ADME
# Sequence of CYP2D6 (P10635 whole entry): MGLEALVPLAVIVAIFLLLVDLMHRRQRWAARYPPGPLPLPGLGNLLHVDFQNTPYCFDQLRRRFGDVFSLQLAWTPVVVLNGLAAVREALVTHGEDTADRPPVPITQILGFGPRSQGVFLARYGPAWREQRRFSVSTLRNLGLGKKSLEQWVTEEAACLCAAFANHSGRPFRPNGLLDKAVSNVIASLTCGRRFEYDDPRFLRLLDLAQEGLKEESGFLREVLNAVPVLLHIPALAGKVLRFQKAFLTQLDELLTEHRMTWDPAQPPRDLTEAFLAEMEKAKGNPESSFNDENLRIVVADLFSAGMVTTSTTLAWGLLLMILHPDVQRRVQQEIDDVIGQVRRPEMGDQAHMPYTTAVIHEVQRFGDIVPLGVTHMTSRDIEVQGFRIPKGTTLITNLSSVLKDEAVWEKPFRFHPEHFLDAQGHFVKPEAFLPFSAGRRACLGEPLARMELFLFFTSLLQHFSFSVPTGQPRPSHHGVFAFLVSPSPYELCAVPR
# [33] = target: T3, ADP-ribosyl cyclase/cyclic ADP-ribose hydrolase 1 (Rattus norvegicus, UniProt Q64244); assay: Inhibition of rat CD38 using N6-etheno-NAD as substrate by fluorescence microplate reader assay
# T3 sequence (Q64244 whole entry): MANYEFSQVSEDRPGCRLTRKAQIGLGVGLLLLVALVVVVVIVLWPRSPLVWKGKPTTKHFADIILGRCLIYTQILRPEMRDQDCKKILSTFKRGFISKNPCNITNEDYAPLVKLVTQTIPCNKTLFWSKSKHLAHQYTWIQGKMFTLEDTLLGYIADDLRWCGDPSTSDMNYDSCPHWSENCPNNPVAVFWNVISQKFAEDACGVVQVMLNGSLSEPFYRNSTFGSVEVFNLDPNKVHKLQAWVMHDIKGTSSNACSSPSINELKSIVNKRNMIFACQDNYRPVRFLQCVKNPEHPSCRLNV
# [34] = Plasma protein binding in rat; type: ADME, cell-free; details: read-out: PPB (converted)
# [35] = target: T4, ADP-ribosyl cyclase/cyclic ADP-ribose hydrolase 1 (Mus musculus, UniProt P56528); assay: Inhibition of mouse his tagged CD38 using N6-etheno-NAD as substrate by fluorescence microplate reader assay
# T4 sequence (P56528 whole entry): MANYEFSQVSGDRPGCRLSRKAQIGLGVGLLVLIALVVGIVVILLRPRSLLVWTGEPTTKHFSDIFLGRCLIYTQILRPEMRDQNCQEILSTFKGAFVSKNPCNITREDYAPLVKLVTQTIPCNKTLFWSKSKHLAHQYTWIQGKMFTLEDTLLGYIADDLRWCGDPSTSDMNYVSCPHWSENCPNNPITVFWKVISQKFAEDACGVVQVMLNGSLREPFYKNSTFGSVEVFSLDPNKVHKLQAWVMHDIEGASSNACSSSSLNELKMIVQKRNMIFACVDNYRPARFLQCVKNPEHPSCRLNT
# [36] = Cmax in non-human primates at 1 mg/kg, po; type: ADME, organism-based; parameters: dose 1 mg/kg, route po; details: in vivo
# [37] = target: CYP2C19 (Homo sapiens, UniProt P33261); assay: Inhibition of CYP2C19 (unknown origin) at 10 uM relative to control; type: ADME
# Sequence of CYP2C19 (P33261 whole entry): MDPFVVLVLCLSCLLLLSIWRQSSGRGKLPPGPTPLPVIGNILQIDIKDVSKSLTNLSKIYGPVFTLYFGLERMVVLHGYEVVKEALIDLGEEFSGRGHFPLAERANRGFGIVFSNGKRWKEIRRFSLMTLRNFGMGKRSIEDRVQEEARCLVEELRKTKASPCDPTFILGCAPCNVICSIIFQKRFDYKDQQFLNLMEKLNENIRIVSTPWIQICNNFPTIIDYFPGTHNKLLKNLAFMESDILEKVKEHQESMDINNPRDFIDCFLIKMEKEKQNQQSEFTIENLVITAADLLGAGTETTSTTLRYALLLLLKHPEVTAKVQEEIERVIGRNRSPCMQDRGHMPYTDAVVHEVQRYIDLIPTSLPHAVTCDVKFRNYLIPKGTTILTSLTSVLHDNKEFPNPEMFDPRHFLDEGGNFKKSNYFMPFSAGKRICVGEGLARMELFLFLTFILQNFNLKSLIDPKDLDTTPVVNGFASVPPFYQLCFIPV
# [38] = Volume of distribution at steady state in Sprague-Dawley rat at 1 mg/kg, iv; type: ADME, organism-based; details: in vivo
# [39] = AUC in non-human primates at 1 mg/kg, po; type: ADME, organism-based; parameters: dose 1 mg/kg, route po; details: in vivo
# [40] = In vivo inhibition of CD38 in po dosed mouse assessed as reduction in ADPR level in blood mg/kg measured after 6 hrs; type: functional, organism-based
# [41] = organism: Mus musculus; details: dose 3-30 mg/kg, route po, time 6.0 hrs; remark: listed apart in the source
# [42] = AUC in Sprague-Dawley rat at 10 mg/kg, po; type: ADME, organism-based; parameters: dose 10 mg/kg, route po; details: in vivo
# [43] = Plasma protein binding in mouse; type: ADME, cell-free; details: read-out: PPB (converted)
# [44] = Apparent permeability of compound across apical to basal membrane in human Caco-2 cells; type: ADME, cell-based
# [45] = Plasma concentration in CD1 mouse at 10 to 90 mg/kg, via oral gavage by LC-MS/MS analysis; type: ADME, organism-based; details: in vivo, DDE = dose-dependent effect, dose 10-90 mg/kg
# [46] = Plasma protein binding in human; type: ADME, cell-free; details: read-out: PPB (converted)
# [47] = Oral bioavailability in non-human primates at 1 mg/kg; type: ADME, organism-based; details: in vivo
# [48] = target: T5, ADP-ribosyl cyclase/cyclic ADP-ribose hydrolase 1 (Homo sapiens, UniProt P28907)
# T5 sequence (P28907 whole entry): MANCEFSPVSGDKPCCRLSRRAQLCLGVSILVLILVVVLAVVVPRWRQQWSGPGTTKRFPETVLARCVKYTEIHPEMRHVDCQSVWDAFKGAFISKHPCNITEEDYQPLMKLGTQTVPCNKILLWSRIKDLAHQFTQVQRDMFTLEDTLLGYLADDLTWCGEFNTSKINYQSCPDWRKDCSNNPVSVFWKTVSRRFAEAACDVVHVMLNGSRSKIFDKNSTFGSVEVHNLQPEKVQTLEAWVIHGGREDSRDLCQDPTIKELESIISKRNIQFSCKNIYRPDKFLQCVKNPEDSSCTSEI
# Description: Inhibition of human his tagged CD38 using N6-etheno-NAD as substrate by fluorescence microplate reader assay
compound,measurement,setting,value
COCCO[C@H]1CC[C@H](NC(=O)c2cc(-c3cncs3)cc3[nH]cc(C#N)c23)CC1,AUC,[1],75 ng·h/mL
COCCO[C@H]1CC[C@H](NC(=O)c2cc(-c3cncs3)nc3[nH]ccc23)CC1,Activity,[2],Dde
same,half-life,[3],3 h
same,inhibition at 10 µM,[4],< 10%
same,solubility kinetic,[5],25 µM
same,half-life,[6],3.1 h
same,EC50,[7],181 nM
same,inhibition,[8],Active
same,solubility thermodynamic,[9],10 µg/mL
same,AUC,[10],1295 ng·h/mL
same,AUC,[11],4810 ng·h/mL
same,Cmax,[12],9.91 ng/mL
same,half-life,[13],1.2 h
same,t1/2,[14],1 h
same,inhibition at 10 µM,[15],< 15%
same,AUC,[1],10400 ng·h/mL
same,inhibition,[16],Active
same,t1/2,[17],3 h
same,Cmax,[18],4230 ng/mL
same,Papp B→A,[19],29.6 ×10⁻⁶ cm/s
same,inhibition,[20],Active
same,half-life,[21],2.7 h
same,AUC,[22],1670 ng·h/mL
same,Vd,[23],0.9 L/kg
same,inhibition at 10 µM,[24],< 15%
same,inhibition,[25],Active
same,inhibition,[26],Active
same,inhibition at 10 µM,[27],< 15%
same,AUC,[28],10400 ng·h/mL
same,Vdss,[29],1.1 L/kg
same,inhibition,[30],Active
same,inhibition,[31],Active
same,inhibition at 10 µM,[32],< 15%
same,IC50,[33],70 nM
same,fraction unbound,[34],0.047
same,IC50,[35],3 nM
same,Cmax,[36],710 ng/mL
same,inhibition at 10 µM,[37],< 15%
same,Vdss,[38],9 L/kg
same,AUC,[39],1740 ng·h/mL
same,EC50,[40],40 nM
same,inhibition,[41],Active
same,AUC,[42],60400 ng·h/mL
same,fraction unbound,[43],0.206
same,Papp A→B,[44],17.5 ×10⁻⁶ cm/s
same,Activity,[45],Dde
same,fraction unbound,[46],0.209
same,bioavailability,[47],100%
COCCO[C@H]1CC[C@H](NC(=O)c2cc(-c3cncs3)cc3cc[nH]c23)CC1,AUC,[1],7380 ng·h/mL
COCCO[C@H]1CC[C@H](NC(=O)c2cc(-n3ccnc3)cc3cn[nH]c23)CC1,AUC,[1],207 ng·h/mL
COCCO[C@H]1CC[C@H](NC(=O)c2cc(-c3cccnn3)cc3cc[nH]c23)CC1,IC50,[48],> 100000 nM
COCCO[C@H]1CC[C@H](NC(=O)c2cc(-n3ccnc3C)cc3cc[nH]c23)CC1,IC50,[48],> 100000 nM
COCCO[C@H]1CC[C@H](NC(=O)c2cc(-c3cncs3)c(F)c3[nH]ccc23)CC1,AUC,[1],5110 ng·h/mL
COCCO[C@H]1CC[C@H](NC(=O)c2cc(-c3cnn(C)c3)cc3cc[nH]c23)CC1,IC50,[48],> 100000 nM
